{"source": "patent US8466127B2", "about": "“Pegylated and fatty acid grafted chitosan oligosaccharide, synthesis method and application for drug delivery system” (Zhejiang University, priority 2008, dated 2013)", "key": {"[1]": {"system": "uterine cervix cancer cell Hela", "experiment": "MTT assay, adriamycin preparation", "format": "cell-based", "conditions": "Homo sapiens, 48 h", "description": "Subsequently, the solution was transferred into a volumetric flask to set the total volume to 50 mL with distilled water, and then 1 mg/mL micelle solution was obtained. […] After stirred at room temperature for 3 h, the solution was dialyzed for 24 h with distilled water in dialysis bag with the molecular weight of 3,500. Then the dialysis concentrate solution was centrifuged at 5000 rpm for 5 min to remove the dialyzed hydrophobic anticancer drugs.\nSubsequently, the evaluation of antitumor efficacy was conducted. Specifically, the uterine cervix cancer cell Hela used as the model was cultured in 96-well culture plate. 100 μL cell culture solution containing 5×10^3 Hela cells was added to each well and cultured for 24 h in 37° C., 5% CO2 incubator. […] A repeated well of each above group was set. The cells were cultured in normal DMEM medium for 48. After 20 μL of 5 mg/mL methylthiazoletetrazolium (MTT) solution was added to each well, the cells was re-cultured in 37° C., 5% CO2 incubator for 4 h, and then the supernatant was discarded. By adding 150 μL dimethyl sulfoxide to each well, a multi-functional microplate reader was used to measure the absorbance, and then the cell inhibition ratio was calculated according to the following formula: Cell inhibition ratio(%)=(absorbance of control group−absorbance of experimental group)/absorbance of control group×100%"}, "[2]": {"system": "drug-resistant cell (MCF-7-adr)", "experiment": "MTT assay, adriamycin preparation, drug-resistant cells", "format": "cell-based", "conditions": "Homo sapiens, NCI/ADR-RES, 48 h", "description": "(§1) Specifically, the breast carcinoma cell (MCF-7) and its drug-resistant cell (MCF-7-adr) used as the model cells were cultured in 96-well culture plate. 100 μL culture solution containing 5×10^3 MCF-7 or MCF-7-adr cells was added to each well and cultured for 24 h in 37° C., 5% CO2 incubator. […] A repeated well of each above group was set. The cells were cultured in normal DMEM medium for 48. After 20 μL of 5 mg/mL methylthiazoletetrazolium (MTT) solution was added to each well, the cells was re-cultured in 37° C., 5% CO2 incubator for 4 h, and then the supernatant was discarded. By adding 150 μL dimethyl sulfoxide to each well, a multi-functional microplate reader was used to measure the absorbance, and then the cell inhibition ratio was calculated according to the following formula: Cell inhibition ratio %=(absorbance of control group−absorbance of experimental group)/absorbance of control group×100%"}, "QGY tumor": {"system": "QGY tumor", "experiment": "In vivo gene therapy, tumor inhibition", "conditions": "Nude mouse with QGY tumor, 2 mg/kg once, successive administration for 7 days", "description": "PEDF was taken as the theoretical gene, and the drug-loaded graft micelle was prepared."}, "[3]": {"system": "breast carcinoma cell (MCF-7)", "experiment": "MTT assay, adriamycin preparation, sensitive cells", "format": "cell-based", "conditions": "Homo sapiens, MCF7, 48 h", "description": "as §1"}, "[4]": {"system": "human lung cancer cell A549", "experiment": "MTT assay, paclitaxel and hydroxycamptothecin preparations", "format": "cell-based", "conditions": "A549, 48 h", "quoted_text": "Specifically, the human lung cancer cell A549 used as the model was cultured in 96-well culture plate. 100 μL cell culture solution containing 5×10^3 A549 cells was added to each well and cultured for 24 h in 37° C., 5% CO2 incubator. […] A repeated well of each above group was set. The cells were cultured in normal DMEM medium for 48. After 20 μL of 5 mg/mL methylthiazoletetrazolium (MTT) solution was added to each well, the cells was re-cultured in 37° C., 5% CO2 incubator for 4 h, and then the supernatant was discarded. By adding 150 μL dimethyl sulfoxide to each well, a multi-functional microplate reader was used to measure the absorbance, and then the cell inhibition ratio was calculated according to the following formula: Cell inhibition ratio %=(absorbance of control group−absorbance of experimental group)/absorbance of control group×100%"}, "[5]": {"system": "ovarian cancer cell SKOV-3", "experiment": "MTT assay, paclitaxel preparation, sensitive cells", "format": "cell-based", "conditions": "Homo sapiens, SK-OV-3, 48 h", "description": "as §1, with “ovarian cancer” for “breast carcinoma”, “SKOV-3” for “(MCF-7)”, “SKOV-3/ST30” for “(MCF-7-adr)”, “SKOV-3” for “MCF-7”, “SKOV-3/ST30” for “MCF-7-adr”"}, "[6]": {"system": "drug-resistant cell SKOV-3/ST30", "experiment": "MTT assay, paclitaxel preparation, drug-resistant cells", "format": "cell-based", "conditions": "Homo sapiens, SK-OV-3, 48 h", "description": "as §1, with “ovarian cancer” for “breast carcinoma”, “SKOV-3” for “(MCF-7)”, “SKOV-3/ST30” for “(MCF-7-adr)”, “SKOV-3” for “MCF-7”, “SKOV-3/ST30” for “MCF-7-adr”"}, "hepatoma cell HepG2": {"system": "hepatoma cell HepG2", "experiment": "MTT assay, mitomycin C preparations", "format": "cell-based", "conditions": "HepG2, 48 h, mitomycin C solution or mitomycin C-loaded micelle of the named carrier", "description": "Cell survival rate was determined by MTT assay. […] After incubation for 48 h, 60 μL of MTT solution was added to each well followed by incubation for 4 h. After that, the supernatant was discarded, and the cells were washed twice with PBS solution, prior to adding 400 μL DMSO to each well to terminate the reaction. After the culture plates were given a horizontal vibration for 10 min, the absorbance at the wavelength of 570 nm was measured in ELSA meter, and the cell survival rate was calculated according to the following formula: Cell survival rate(%)=A570(sample)/A570(control)×100% Wherein, A570 (sample) is the absorbance of cells adding with free drug or drug-loaded micelle, A570 (control) is the absorbance of control cells."}}, "note": "Read-outs that look alike come from different tables or passages of the source."}
{"compound": "COc1cccc2c1C(=O)c1c(O)c3c(c(O)c1C2=O)C[C@@](O)(C(=O)CO)C[C@@H]3O[C@H]1C[C@H](N)[C@H](O)[C@H](C)O1", "note": "[adriamycin solution, adriamycin]", "values": [{"measurement": "IC50", "setting": "[1]", "result": 1.7, "unit": "µg/mL"}, {"measurement": "IC50", "setting": "[2]", "result": 24.8, "unit": "µg/mL"}, {"measurement": "tumor inhibition ratio (positive control)", "setting": "QGY tumor", "result": 78.85, "unit": "%"}, {"measurement": "IC50", "setting": "[3]", "result": 0.48, "unit": "µg/mL"}]}
{"compound": "CC[C@@]1(O)C(=O)OCc2c1cc1n(c2=O)Cc2cc3cc(O)ccc3nc2-1", "note": "[hydeoxycamptothecin injection, hydroxycamptothecin]", "values": [{"measurement": "IC50", "setting": "[4]", "result": 8.6, "unit": "µg/mL"}]}
{"compound": "CC(=O)O[C@H]1C(=O)[C@@]2(C)[C@H]([C@H](OC(=O)c3ccccc3)[C@]3(O)C[C@H](OC(=O)[C@H](O)[C@@H](NC(=O)c4ccccc4)c4ccccc4)C(C)=C1C3(C)C)[C@]1(OC(C)=O)CO[C@@H]1C[C@@H]2O", "note": "[taxol solution, paclitaxel]", "values": [{"measurement": "IC50", "setting": "[5]", "result": "0.45 ± 0.05", "unit": "µg/mL"}, {"measurement": "IC50", "setting": "[6]", "result": "10.2 ± 0.23", "unit": "µg/mL"}, {"measurement": "IC50", "setting": "[4]; MTT, read-out: IC50", "result": 3.2, "unit": "µg/mL"}]}
{"compound": "CO[C@@]12[C@H](COC(N)=O)C3=C(C(=O)C(C)=C(N)C3=O)N1C[C@@H]1N[C@@H]12", "note": "[Control example, mitomycin C]", "values": [{"measurement": "IC50", "setting": "hepatoma cell HepG2", "result": 1.97, "unit": "µg/mL"}]}
